Reference: ChEMBL document CHEMBL4651402, “Screening of ~5500 FDA-approved drugs and clinical candidates for anti-SARS-CoV-2 activity” (2021)

System: SARS-CoV-2
Experiment: microbe, parasite or virus in culture
Details: Severe acute respiratory syndrome coronavirus 2, Vero C1008, 48 h

SMILES | IC50 | IC50 (read-out: pIC50 (converted))
C#C[C@]1(OC(C)=O)CC[C@H]2[C@@H]3CCC4=C[C@@H](OC(C)=O)CC[C@@H]4[C@H]3CC[C@@]21C [ETHYNODIOL DIACETATE] | > 20 µM | > 20 µM
CCc1cc(Cl)c(OC)c(C(=O)NC[C@@H]2CCCN2CC)c1O [ETICLOPRIDE] | > 20 µM | > 20 µM
CCCN(CC)C(CC)C(=O)Nc1c(C)cccc1C (configuration not stated) [ETIDOCAINE] | > 20 µM | > 20 µM
CC(O)(P(=O)(O)O)P(=O)(O)O [ETIDRONIC ACID] | > 20 µM | > 20 µM
CCc1cccc(CC)c1NC(=O)CN(CC(=O)O)CC(=O)O [ETIFENIN] | > 20 µM | > 20 µM
CCNC1=Nc2ccc(Cl)cc2C(C)(c2ccccc2)O1 (configuration not stated) [ETIFOXINE] | > 20 µM | > 20 µM
CCNCC(O)c1cccc(O)c1 (configuration not stated) [ETILEFRINE] | > 20 µM | > 20 µM
C#CCN/C(=N\C#N)NCCSCc1nc[nH]c1C [ETINTIDINE] | > 20 µM | > 20 µM
CCOc1ccc(NC(=S)Nc2ccc(OCC)cc2)cc1 [ETOCARLIDE] | > 20 µM | > 20 µM
CCc1cccc2c3c([nH]c12)C(CC)(CC(=O)O)OCC3 (configuration not stated) [ETODOLAC] | > 20 µM | > 20 µM
O=C(OCCOCCO)c1ccccc1Nc1cccc(C(F)(F)F)c1 [ETOFENAMATE] | > 20 µM | > 20 µM
CCCCN/C(=N\CC)NC(=N)N [ETOFORMIN] | > 20 µM | > 20 µM
Cn1c(=O)c2c(ncn2CCO)n(C)c1=O [ETOFYLLINE] | > 20 µM | > 20 µM
COc1cc([C@@H]2c3cc4c(cc3[C@@H](O[C@@H]3O[C@@H]5CO[C@@H](C)O[C@H]5[C@H](O)[C@H]3O)[C@H]3COC(=O)[C@H]23)OCO4)cc(OC)c1O [ETOPOSIDE] | > 20 µM | > 20 µM
CCc1nc(N)nc(N)c1-c1ccc(Cl)c(Cl)c1 [ETOPRINE] | > 20 µM | > 20 µM
Cc1ccc(-c2ncc(Cl)cc2-c2ccc(S(C)(=O)=O)cc2)cn1 [ETORICOXIB] | > 20 µM | > 20 µM
CCOCCOc1ccccc1C(N)=O [ETOSALAMIDE] | > 20 µM | > 20 µM
CCOC(=O)/C=C(C)/C=C/C=C(C)/C=C/c1c(C)cc(OC)c(C)c1C [ETRETINATE] | > 20 µM | > 20 µM
CCC(N)Cc1c[nH]c2ccccc12 (configuration not stated) [ETRYPTAMINE] | > 20 µM | > 20 µM
CC12CCC(CC1)C(C)(C)O2 [EUCALYPTOL] | > 20 µM | > 20 µM
CC1CC(OC(=O)C(O)c2ccccc2)CC(C)(C)N1C (configuration not stated) [EUCATROPINE] | > 20 µM | > 20 µM
C=CC(=O)N1CCC(CNc2ncnc(N)c2-c2ccc(Oc3ccccc3)cc2)CC1 [EVOBRUTINIB] | > 20 µM | > 20 µM
Cc1nccn1Cc1cc(-c2ccc(F)c(C(F)F)c2)cnn1 [EVT-101 FREE BASE] | > 20 µM | > 20 µM
CCCCCCOc1ccccc1C(N)=O [EXALAMIDE] | > 20 µM | > 20 µM
C=C1C[C@@H]2[C@H](CC[C@]3(C)C(=O)CC[C@@H]23)[C@@]2(C)C=CC(=O)C=C12 [EXEMESTANE] | > 20 µM | > 20 µM
CC1=C(CC(=O)O)c2cc(F)ccc2/C1=C\c1ccc(S(C)(=O)=O)cc1 [EXISULIND] | > 20 µM | > 20 µM

SMILES | IC50 | IC50 (read-out: pIC50 (converted))
O=C1[C@H](CC[C@H](O)c2ccc(F)cc2)[C@@H](c2ccc(O)cc2)N1c1ccc(F)cc1 [EZETIMIBE] | > 20 µM | > 20 µM
Cc1[nH]cnc1C[C@H]1CCc2c(C)c3ccccc3n2C1=O [FABESETRON] | > 20 µM | > 20 µM
C=CCN1CCC[C@H]1CNC(=O)c1cc(CCCF)cc(OC)c1OC [FALLYPRIDE] | > 20 µM | > 20 µM
CC(=O)OCC(CCn1cnc2cnc(N)nc21)COC(C)=O [FAMCICLOVIR] | > 20 µM | > 20 µM
NC(N)=Nc1nc(CSCC/C(N)=N/S(N)(=O)=O)cs1 [FAMOTIDINE] | > 20 µM | > 20 µM
CC(C)c1c(CN(C)C(C)Cc2ccccc2)n(C)n(-c2ccccc2)c1=O (configuration not stated) [FAMPROFAZONE] | > 20 µM | > 20 µM
O=S1(=O)c2cccc3cccc(c23)N1CCCN1CCN(c2ccc(F)cc2)CC1 [FANANSERIN] | > 20 µM | > 20 µM
CN(C)CCCn1c(=O)c2ccccc2c2ccccc21 [FANTRIDONE] | > 20 µM | > 20 µM
O=C(c1ccc2nonc2c1)N1CCCCC1 [FARAMPATOR] | > 20 µM | > 20 µM
O=S(=O)(c1cccc2cnccc12)N1CCCNCC1 [FASUDIL] | > 20 µM | > 20 µM
Cc1cnc(Nc2ccc(OCCN3CCCC3)cc2)nc1Nc1cccc(S(=O)(=O)NC(C)(C)C)c1 [FEDRATINIB] | > 20 µM | > 20 µM
NC(=O)OCC(COC(N)=O)c1ccccc1 [FELBAMATE] | > 20 µM | > 20 µM
O=C(O)Cc1ccc(-c2ccccc2)cc1 [FELBINAC] | > 20 µM | > 20 µM
CCOC(=O)C1=C(C)NC(C)=C(C(=O)OC)C1c1cccc(Cl)c1Cl (configuration not stated) [FELODIPINE] | > 20 µM | > 20 µM
CCOC(=O)C(CC)(C(=O)NCCN(CC)CC)c1ccccc1 (configuration not stated) [FENALAMIDE] | > 20 µM | > 20 µM
O=C(O)c1ccccc1Nc1ccccc1 [FENAMIC ACID] | > 20 µM | > 20 µM
COC(=O)Nc1nc2cc(Sc3ccccc3)ccc2[nH]1 [FENBENDAZOLE] | > 20 µM | > 20 µM
O=C(O)CCC(=O)c1ccc(-c2ccccc2)cc1 [FENBUFEN] | > 20 µM | > 20 µM
CCNC1C2CCC(C2)C1c1ccccc1 (configuration not stated) [FENCAMFAMIN] | > 20 µM | > 20 µM
O=C(O)Cc1csc(-c2ccc(Cl)cc2)n1 [FENCLOZIC ACID] | > 20 µM | > 20 µM
CC(NCCC(c1ccccc1)c1ccccc1)c1ccccc1 (configuration not stated) [FENDILINE] | > 20 µM | > 20 µM
C[C@H]1CN(C2COC2)CCN1c1ccc(Nc2cc(-c3ccnc(N4CCn5c(cc6c5CC(C)(C)C6)C4=O)c3CO)cn(C)c2=O)nc1 [FENEBRUTINIB] | > 20 µM | > 20 µM
CCNC(C)Cc1cccc(C(F)(F)F)c1 (configuration not stated) [FENFLURAMINE] | > 20 µM | > 20 µM
CCCC/N=C(/c1cc(Cl)ccc1O)c1ccccc1Cl [FENGABINE] | > 20 µM | > 20 µM
CC1NC(=O)COC1c1ccccc1 (configuration not stated) [FENMETRAMIDE] | > 20 µM | > 20 µM
CC(C)(Oc1ccc(C(=O)c2ccc(Cl)cc2)cc1)C(=O)O [FENOFIBRIC ACID] | > 20 µM | > 20 µM

SMILES | IC50 | IC50 (read-out: pIC50 (converted))
Oc1ccc(C2CNCCc3c2cc(O)c(O)c3Cl)cc1 (configuration not stated) [FENOLDOPAM] | > 20 µM | > 20 µM
CC(C(=O)O)c1cccc(Oc2ccccc2)c1 (configuration not stated) [FENOPROFEN] | > 20 µM | > 20 µM
O=C(CN1CCN(Cc2ccc3c(c2)OCO3)CC1)N1c2ccccc2Sc2ccccc21 [FENOVERINE] | > 20 µM | > 20 µM
CC(Cc1ccc(C(C)(C)C)cc1)CN1CCCCC1 (configuration not stated) [FENPROPIDIN] | > 20 µM | > 20 µM
NS(=O)(=O)c1cc2c(cc1Cl)NC(c1ccccc1)NC2=O (configuration not stated) [FENQUIZONE] | > 20 µM | > 20 µM
O=C(O)Cc1sc(-c2ccccc2)nc1-c1ccc(Cl)cc1 [FENTIAZAC] | > 20 µM | > 20 µM
Oc1ccc(Cl)cc1Sc1cc(Cl)ccc1O [FENTICLOR] | > 20 µM | > 20 µM
Clc1ccc(C(Cn2ccnc2)OCc2ccc(Sc3ccccc3)cc2)c(Cl)c1 (configuration not stated) [FENTICONAZOLE] | > 20 µM | > 20 µM
CC(C)=CCC1C(=O)N(c2ccccc2)N(c2ccccc2)C1=O [FEPRAZONE] | > 20 µM | > 20 µM
COc1cc(/C=C/C(=O)O)ccc1O [FERULATE] | > 20 µM | > 20 µM
COc1cc(CCc2cc(NC(=O)c3ccc(N4C[C@@H](C)N[C@@H](C)C4)cc3)n[nH]2)cc(OC)c1 [FEXAGRATINIB] | > 20 µM | > 20 µM
CC(C)(C(=O)O)c1ccc(C(O)CCCN2CCC(C(O)(c3ccccc3)c3ccccc3)CC2)cc1 (configuration not stated) [FEXOFENADINE] | > 20 µM | > 20 µM
COCCNc1cc(NC(=O)N2CCCc3cc(CN4CCN(C)CC4=O)c(C=O)nc32)ncc1C#N [FGF401] | > 20 µM | > 20 µM
Cc1nc2ccc(-n3ncc(C(=O)c4cc5ccccc5[nH]4)c3N)cc2[nH]1 [FGFR INHIBITOR DEBIO 1347] | > 20 µM | > 20 µM
O=c1[nH]c(=O)n([C@@H]2O[C@H](CO)[C@@H](O)[C@@H]2F)cc1I [FIALURIDINE] | > 20 µM | > 20 µM
CCOc1ccc(-c2ccc(Cn3c(CC(C)(C)C(=O)O)c(SC(C)(C)C)c4cc(OCc5ccc(C)cn5)ccc43)cc2)cn1 [FIBOFLAPON] | > 20 µM | > 20 µM
CON(C)C(=O)N1N=C(c2cc(F)ccc2F)S[C@@]1(CCCN)c1ccccc1 [FILANESIB] | > 20 µM | > 20 µM
O=C(Nc1nc2cccc(-c3ccc(CN4CCS(=O)(=O)CC4)cc3)n2n1)C1CC1 [FILGOTINIB] | > 20 µM | > 20 µM
COc1cc(C(=O)OC2CC3CCC(C2)N3C)ccc1O (configuration not stated) [FILLALBIN] | > 20 µM | > 20 µM
COc1ccc(-c2nc(N3CCOCC3)c3sc(CN(C)c4ncc(C(=O)NO)cn4)cc3n2)cn1 [FIMEPINOSTAT] | > 20 µM | > 20 µM
CCCCCCCCc1ccc(CCC(N)(CO)CO)cc1 [FINGOLIMOD] | > 20 µM | > 20 µM
COc1ccc(C(=O)NC2(C(=O)O)Cc3ccccc3C2)cc1OCCc1cccc(C)c1 [FIPAXALPARANT] | > 20 µM | > 20 µM
O=C(COc1ccc(Cl)cc1)N1CCN(Cc2ccc3c(c2)OCO3)CC1 [FIPEXIDE] | > 20 µM | > 20 µM
N#Cc1nn(-c2c(Cl)cc(C(F)(F)F)cc2Cl)c(N)c1[S+]([O-])C(F)(F)F (configuration not stated) [FIPRONIL] | > 20 µM | > 20 µM
